Test results reported in patent publication US20230055705A1, “SUBSTITUTED THIOPHENE CARBOXAMIDES AND DERIVATIVES THEREOF” (Bayer Aktiengesellschaft, priority 2019, published 2023).

Tests used:
[1] = tested on: salicylate responsive promoter sequence of the PR1 (pathogenesis-related protein I) gene (AT2G14610); experiment: Induction of defense gene expression in Arabidopsis thaliana (PR1 promoter-GFP reporter plants); format: in vivo; conditions: Arabidopsis thaliana, 72 h, 3rd day after spraying, mock treated leaves set as 1.00, read-out: relative fluorescence value; for fold induction at 75 ppm: 75 ppm of compound
Procedure, shortened: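 Transgenic A. thaliana carrying GFP under the salicylate-responsive PR1 promoter, grown five days, then sprayed with compounds. Whole-plant fluorescence imaged and quantified on day 3 post-spray, expressed relative to mock-treated leaf background set at 1.00.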

[2] = tested on: Alternaria alternata; experiment: Alternaria alternata in vitro cell test; format: cell-based; conditions: 120 h, 20 ppm of active ingredient, 5 days incubation, read-out: efficacy (inhibition of fungal growth)
Method: • Solvent: DMSO • Culture medium: 14.6 g anhydrous D-glucose (VWR), 7.1 g Mycological Peptone (Oxoid), 1.4 g granulated Yeast Extract (Merck), QSP 1 liter • Inoculum: spores suspension
Fungicides were solubilized in DMSO and the solution used to prepare the required range of concentrations. The final concentration of DMSO used in the assay was ≤[…]1%.
A spore suspension of A. alternata was prepared and diluted to the desired spore density.
Fungicides were evaluated for their ability to inhibit spore germination and mycelium growth in liquid culture assay. The compounds were added in the desired concentration to the culture medium with spores. After 5 days incubation, fungi-toxicity of compounds was determined by spectrometric measurement of mycelium growth. Inhibition of fungal growth was determined by comparing the absorbance values in wells containing the fungicides with the absorbance in control wells without fungicides.

[3] = tested on: Xanthomonas campestris pv. campestris; experiment: Xanthomonas campestris pv. campestris in vitro cell test; format: cell-based; conditions: 20 ppm of active ingredient, 24 h incubation, read-out: efficacy (inhibition of bacteria growth)
Procedure, shortened: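 Bacteria from a liquid pre-culture, diluted to a set OD, were grown in LB broth with compound at the required concentrations (final DMSO ≤1%). After 24 h, growth was read spectrometrically. Inhibition was derived from absorbance versus compound-free controls.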

[4] = tested on: Pseudomonas syringae pv. tomato; experiment: Pseudomonas syringae pv. tomato in vitro cell test; format: cell-based; conditions: 20 ppm of active ingredient, 24 h incubation, read-out: efficacy (inhibition of bacteria growth)
Procedure, shortened: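 Bacterial suspension pre-cultured and diluted to set OD in LB broth, incubated 24 h with compounds (DMSO, 1% final). Growth read spectrometrically; inhibition calculated from absorbance versus untreated control wells.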

[5] = tested on: Peronospora parasitica; experiment: In vivo preventive test on Peronospora parasitica (Crucifer downy mildew); conditions: Hyaloperonospora parasitica, in Brassica oleracea, 120 h, cabbage, evaluated 5 days after inoculation, read-out: efficacy; for pest or weed control at 31 ppm: 31 ppm of active ingredient; for pest or weed control at 125 ppm: 125 ppm of active ingredient; for pest or weed control at 500 ppm: 500 ppm of active ingredient
Procedure, shortened: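 Young cabbage plants were sprayed with compound in acetone/DMSO/Tween diluted with water, then inoculated 72 h later with a Peronospora parasitica spore suspension. Plants were kept 5 days at 20 °C and 100% RH. Efficacy was scored with 0% equal to solvent-treated controls and 100% meaning no disease.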

[6] = tested on: Xanthomonas campestris pv. campestris; experiment: In vivo preventive test on Xanthomonas campestris pv. campestris (black rot on cabbage); conditions: evaluated 8 or 10 days after inoculation, read-out: efficacy; for pest or weed control at 31 ppm: 31 ppm of active ingredient; for pest or weed control at 125 ppm: 125 ppm of active ingredient
Procedure, shortened: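 Young cabbage plants sprayed with compound in acetone/DMSO/Tween diluted in water; solvent-only controls. Leaves sprayed with bacterial suspension 72 h later, then held 8 or 10 days at 27° C and 95% relative humidity. Efficacy scored 8 or 10 days post-inoculation, 0% matching controls, 100% meaning no disease.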

[7] = tested on: Uromyces appendiculatus; experiment: In vivo preventive test on Uromyces appendiculatus (bean rust); conditions: 240 h, evaluated 10 days after inoculation, read-out: efficacy; for pest or weed control at 125 ppm: 125 ppm of active ingredient; for pest or weed control at 500 ppm: 500 ppm of active ingredient
Procedure, shortened: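 Young bean plants sprayed with compound in acetone/DMSO/Tween diluted in water, inoculated 72 h later with U. appendiculatus spore suspension. Held 24 h at 20 °C, 100% RH, then 9 days at 20 °C, 70-80% RH. Efficacy scored 10 days post-inoculation versus solvent-treated controls (0% = control, 100% = no disease).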

[8] = LogP by HPLC on reversed phase columns (EEC directive 79/831 Annex V.A8); format: physicochemical; conditions: reversed phase HPLC columns
Procedure, shortened: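 Reversed-phase HPLC per EEC directive 79/831 Annex V.A8. Calibrated with straight-chain alkan-2-ones (C3–C16) of known LogP, LogP from retention times by linear interpolation between successive alkanones. Lambda-max taken from UV spectra (200–400 nm) at chromatographic peak maxima.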

[9] = method [a]: LC-UV, in an acidic range, with 0.1% formic acid in water and acetonitrile as eluent (linear gradient from 10% to 95% acetonitrile)
[10] = given in the preparation examples, method not marked

SMILES	fold induction at 75 ppm [1]	fold induction at 300 ppm [1]	inhibition at 20 ppm [2] [%]	inhibition at 20 ppm [3] [%]	inhibition at 20 ppm [4] [%]	pest or weed control at 31 ppm [5] [%]	pest or weed control at 125 ppm [5] [%]	pest or weed control at 500 ppm [5] [%]	pest or weed control at 31 ppm [6] [%]	pest or weed control at 125 ppm [7] [%]	pest or weed control at 500 ppm [7] [%]	chromatographic logP [8, 9]	pest or weed control at 125 ppm [6] [%]	chromatographic logP [8, 10]
COC(=O)[C@H](CCCNC(=N)N)NC(=O)c1sc(Cl)c(Cl)c1Cl [I.008]	> 2	> 2	≤ 30	≤ 30	≤ 30	90 to 100	90 to 100	90 to 100	80 to 89	70 to 79	90 to 100	1.73		
CCOC(=O)C(C#N)NC(=O)c1sc(Cl)c(Cl)c1Cl (stereo not drawn) [I.009]	> 2	> 2	≤ 30	≤ 30	≤ 30	90 to 100	90 to 100	90 to 100	90 to 100	90 to 100	90 to 100	3.31	90 to 100	
COC(=O)C(Cc1c[nH]cn1)NC(=O)c1sc(Cl)c(Cl)c1Cl (stereo not drawn) [I.012]	> 2	> 2		≤ 30	≤ 30	70 to 79	90 to 100	90 to 100	80 to 89		90 to 100	1.5		
COC(=O)[C@H](CC(N)=O)NC(=O)c1sc(Cl)c(Cl)c1Cl [I.015]	> 2	> 2	≤ 30	≤ 30	≤ 30	90 to 100	90 to 100		90 to 100	80 to 89		2.16		
COC(=O)C(CC(F)F)NC(=O)c1sc(Cl)c(Cl)c1Cl (stereo not drawn) [I.016]	> 2	> 2	≤ 30	≤ 30	≤ 30	90 to 100	90 to 100	90 to 100	90 to 100	90 to 100	90 to 100	3.55		
O=C(O)CNC(=S)c1sc(Cl)c(Cl)c1Cl [I.022, N-[(3,4,5-trichloro-2-thienyl)carbonothioyl]glycine]	> 2		≤ 30	≤ 30	≤ 30	90 to 100	90 to 100	90 to 100			90 to 100	3.17		3.17
COC(=O)CNC(=S)c1sc(Cl)c(Cl)c1Cl [I.038, methyl N-[(3,4,5-trichloro-2-thienyl)carbonothioyl]glycinate]		> 2	≤ 30	≤ 30	≤ 30	90 to 100	90 to 100	90 to 100	80 to 89		90 to 100	4.05	80 to 89	4.05
CCOC(=O)C(CC(N)=O)NC(=O)c1sc(Cl)c(Cl)c1Cl (stereo not drawn) [I.046]	> 2	> 2	≤ 30	≤ 30	≤ 30	90 to 100	90 to 100	90 to 100	90 to 100	90 to 100	90 to 100	2.35	90 to 100	
CCOC(=O)C(CC(F)(F)F)NC(=O)c1sc(Cl)c(Cl)c1Cl (stereo not drawn) [I.048]	> 2	> 2	≤ 30	≤ 30	≤ 30	90 to 100	90 to 100	90 to 100		90 to 100	90 to 100	4.27	90 to 100	
C[C@H](NC(=S)c1sc(Cl)c(Cl)c1Cl)C(=O)O [I.113]	> 2	> 2	≤ 30	≤ 30	≤ 30	80 to 89	90 to 100	90 to 100	80 to 89	90 to 100	90 to 100	3.5		
C[C@H](NC(=O)c1sc(Cl)c(Cl)c1Cl)C(N)=O [I.119]	> 2	> 2	≤ 30	≤ 30	≤ 30	90 to 100	90 to 100			90 to 100	90 to 100	2.16		
